Source: PubChem BioAssay AID1919017 (Molecular Pharmacology Branch, DTP, NCI, 2023)

System: SW1271 complex spheroids with HUVEC/MSC, growth, % test/control
Assay: Anticancer human tumor SW1271 cell line growth inhibition [AhR];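 further: spheroids exposed to agents for 7 days before readout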
Settings: for IC50: curve of first compound; for viability, T/C: stronger effect = lower value
Outline: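 Spheroids combined tumor cells with HUVEC endothelial cells and human MSCs as stroma. AhR antagonists were paired with standard or investigational drugs, each dosed in half-log steps down from near clinical Cmax, or from 10 microM where Cmax was unknown.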

[1] = second compound 0.1 µM, first compound 0.0316 µM
[2] = second compound 0.1 µM, first compound 0.1 µM
[3] = second compound 0.1 µM, first compound 0.316 µM
[4] = second compound 0.1 µM, first compound 1 µM
[5] = second compound 0.1 µM, first compound 3.16 µM
[6] = second compound 0.1 µM, first compound 10 µM
[7] = second compound 0.316 µM, first compound 0.0316 µM
[8] = second compound 0.316 µM, first compound 0.1 µM
[9] = second compound 0.316 µM, first compound 0.316 µM
[10] = second compound 0.316 µM, first compound 1 µM
[11] = second compound 0.316 µM, first compound 3.16 µM
[12] = second compound 0.316 µM, first compound 10 µM
[13] = second compound 1 µM, first compound 0.0316 µM
[14] = second compound 1 µM, first compound 0.1 µM
[15] = second compound 1 µM, first compound 0.316 µM
[16] = second compound 1 µM, first compound 1 µM
[17] = second compound 1 µM, first compound 3.16 µM
[18] = second compound 1 µM, first compound 10 µM
[19] = second compound 3.16 µM, first compound 0.0316 µM
[20] = second compound 3.16 µM, first compound 0.1 µM
[21] = second compound 3.16 µM, first compound 0.316 µM
[22] = second compound 3.16 µM, first compound 1 µM
[23] = second compound 3.16 µM, first compound 3.16 µM
[24] = second compound 3.16 µM, first compound 10 µM
[25] = second compound 10 µM, first compound 0.0316 µM
[26] = second compound 10 µM, first compound 0.1 µM
[27] = second compound 10 µM, first compound 0.316 µM
[28] = second compound 10 µM, first compound 1 µM
[29] = second compound 10 µM, first compound 3.16 µM
[30] = second compound 10 µM, first compound 10 µM

With `Nc1ccccc1NC(=O)c1ccc(CNC(=O)OCc2cccnc2)cc1` + Cc1cncc(-c2nc(NCCc3c[nH]c4ccccc34)c3ncn(C(C)C)c3n2)c1 the IC50 (second compound 0.1 µM) was 1.89 µM, the IC50 (second compound 0.316 µM) was 1.74 µM and the IC50 (second compound 1 µM) was 2.49 µM. For the same compound, the IC50 (second compound 3.16 µM) was 1.19 µM, the IC50 (second compound 10 µM) was less than 0.0316 µM and the viability, T/C [1] was 94.7%. The viability, T/C [2] was 110%, the viability, T/C [3] was 95.5% and the viability, T/C [4] was 69.8%. It also gave a viability, T/C [5] of 34.3%, a viability, T/C [6] of 15.8% and a viability, T/C [7] of 109%. For the same compound, the viability, T/C [8] was 104%, the viability, T/C [9] was 97.4% and the viability, T/C [10] was 62.9%. The viability, T/C [11] was 35.5%, the viability, T/C [12] was 17% and the viability, T/C [13] was 121%. The viability, T/C [14] was 118%, the viability, T/C [15] was 88.9% and the viability, T/C [16] was 63.1%. The viability, T/C [17] was 51.9%, the viability, T/C [18] was 17.1% and the viability, T/C [19] was 121%. The viability, T/C [20] was 107%, the viability, T/C [21] was 112% and the viability, T/C [22] was 52.8%. It also gave a viability, T/C [23] of 36%, a viability, T/C [24] of 16.7% and a viability, T/C [25] of 44.2%. For the same compound, the viability, T/C [26] was 46.3%, the viability, T/C [27] was 35.3% and the viability, T/C [28] was 24%. The viability, T/C [29] was 18.3% and the viability, T/C [30] was 14.3%.
`O=C(C=Cc1cccc(S(=O)(=O)Nc2ccccc2)c1)NO` + Cc1cncc(-c2nc(NCCc3c[nH]c4ccccc34)c3ncn(C(C)C)c3n2)c1 gave an IC50 (second compound 0.1 µM) of 1.88 µM, an IC50 (second compound 0.316 µM) of 1.39 µM and an IC50 (second compound 1 µM) of 2.09 µM. It also gave an IC50 (second compound 3.16 µM) of 1.46 µM, an IC50 (second compound 10 µM) of 0.21 µM and a viability, T/C [1] of 97.2%. The viability, T/C [2] was 93.9%, the viability, T/C [3] was 83.2% and the viability, T/C [4] was 68.3%. It also gave a viability, T/C [5] of 35.5%, a viability, T/C [6] of 16.9% and a viability, T/C [7] of 104%. It also gave a viability, T/C [8] of 102%, a viability, T/C [9] of 96.8% and a viability, T/C [10] of 61.9%. The viability, T/C [11] was 20.2%, the viability, T/C [12] was 16.6% and the viability, T/C [13] was 97.4%. The viability, T/C [14] was 97.8%, the viability, T/C [15] was 84.5% and the viability, T/C [16] was 65.4%. It also gave a viability, T/C [17] of 41.7%, a viability, T/C [18] of 15.9% and a viability, T/C [19] of 107%. The viability, T/C [20] was 115%, the viability, T/C [21] was 97.7% and the viability, T/C [22] was 57.5%. The viability, T/C [23] was 33.7%, the viability, T/C [24] was 16.6% and the viability, T/C [25] was 49.9%. It also gave a viability, T/C [26] of 53.5%, a viability, T/C [27] of 53.1% and a viability, T/C [28] of 39.8%. For the same compound, the viability, T/C [29] was 39.2% and the viability, T/C [30] was 25.5%.
`O=C(c1cc(Cc2n[nH]c(=O)c3ccccc23)ccc1F)N1CCN(C(=O)C2CC2)CC1` + Cc1cncc(-c2nc(NCCc3c[nH]c4ccccc34)c3ncn(C(C)C)c3n2)c1 showed an IC50 (second compound 0.1 µM) greater than 10 µM, an IC50 (second compound 0.316 µM) greater than 10 µM and an IC50 (second compound 1 µM) greater than 10 µM. It also gave an IC50 (second compound 3.16 µM) greater than 10 µM, an IC50 (second compound 10 µM) of less than 0.0316 µM and a viability, T/C [1] of 74.1%. It also gave a viability, T/C [2] of 75.8%, a viability, T/C [3] of 83.6% and a viability, T/C [4] of 75.6%. The viability, T/C [5] was 102%, the viability, T/C [6] was 100% and the viability, T/C [7] was 84.9%. For the same compound, the viability, T/C [8] was 94.2%, the viability, T/C [9] was 95.5% and the viability, T/C [10] was 83.7%. The viability, T/C [11] was 90.2%, the viability, T/C [12] was 91.4% and the viability, T/C [13] was 84.9%. For the same compound, the viability, T/C [14] was 91.2%, the viability, T/C [15] was 79.3% and the viability, T/C [16] was 80.2%. It also gave a viability, T/C [17] of 81.7%, a viability, T/C [18] of 75.8% and a viability, T/C [19] of 90.7%. It also gave a viability, T/C [20] of 78.7%, a viability, T/C [21] of 96.6% and a viability, T/C [22] of 75.6%. The viability, T/C [23] was 62.9%, the viability, T/C [24] was 80.1% and the viability, T/C [25] was 50.1%. It also gave a viability, T/C [26] of 46.4%, a viability, T/C [27] of 46.4% and a viability, T/C [28] of 33.3%. It also gave a viability, T/C [29] of 44.9% and a viability, T/C [30] of 34.7%.
